Results on eleven molecules are retold here after ChEMBL document CHEMBL1201862, “PubChem BioAssay data set” (2004).

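96-well plates; 48 h exposure; 5 concentrations. Endpoints by linear interpolation between flanking doses. Not reached: highest tested concentration assigned. At the GI50, growth is halved.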 Active and inactive are the calls of the source. No stated cut-off is given here; in the data, active = GI50 up to about 1.1 µM and inactive = higher.

Test systems include OVCAR-4; HCC 2998; SF-268; LOX IMVI; OVCAR-8; NCI-H226; CAKI-1; KM12; IGROV-1; HCT-116; OVCAR-5; SK-MEL-28; M14; NCI-H522; HT-29; U-251; NCI-H460; UO-31; SK-OV-3; MDA-N.
Common to all, as to experiment: inhibition of tumour cell growth, NCI panel, 48 h

As for `COc1cccc(NC(=O)C(=O)C(C(=O)c2ccccc2F)C2OC(=O)c3ccccc32)c1` (stereo unspecified), the GI50 with OVCAR-4 was 36.4 µM (inactive); in the assay on HCC 2998 it was 17.9 µM (inactive); in the assay on SF-268, 30.5 µM (inactive); in the assay with LOX IMVI, 29.9 µM (inactive); with OVCAR-8, 21.8 µM (inactive); with NCI-H226, 28 µM (inactive). Further, the GI50 is 52.5 µM (inactive) in the assay on CAKI-1; 45.8 µM (inactive) in the assay with KM12; 56.6 µM (inactive) in the assay with IGROV-1; 20 µM (inactive) in the assay on HCT-116; 59 µM (inactive) with OVCAR-5; 58.6 µM (inactive) in the assay with SK-MEL-28. The GI50 is 48 µM (inactive) with M14; 16.1 µM (inactive) in the assay on NCI-H522; 34.3 µM (inactive) in the assay on HT-29; 15.5 µM (inactive) with U-251; 35.1 µM (inactive) in the assay on NCI-H460; 34.4 µM (inactive) in the assay on UO-31. The GI50 in the assay on SK-OV-3 was 35.2 µM (inactive).

Take `COc1cc(S(=O)(=O)Nc2ccc(-c3csc(N4C(=O)C(Cl)C4c4ccccc4)n3)cc2)ccc1Cl` (stereo unspecified): the GI50 in the assay on OVCAR-4 was 52.6 µM (inactive); in the assay on MDA-N, 37.5 µM (inactive); in the assay on SF-268 it was 33.9 µM (inactive); in the assay with LOX IMVI, 2.14 µM (inactive); with OVCAR-8, 20.1 µM (inactive); in the assay with CAKI-1, > 100 µM (inactive). In addition, the GI50 in the assay on KM12 was 44.2 µM (inactive); with IGROV-1, 4.63 µM (inactive); in the assay on HCT-116 it was 59.6 µM (inactive); in the assay with OVCAR-5, 47.4 µM (inactive); in the assay on SK-MEL-28 it was 66.5 µM (inactive); in the assay with M14, 24 µM (inactive). Also, the GI50 in the assay on NCI-H522 is 3.14 µM (inactive); in the assay with HT-29, > 100 µM (inactive); with NCI-H460 it was < 0.01 µM (active); in the assay on UO-31, 25 µM (inactive); in the assay with SK-OV-3, > 100 µM (inactive).

Regarding `COc1cc(CN(C)N2C(=O)c3cccc4cc([N+](=O)[O-])cc(c34)C2=O)cc(OC)c1OC`, the GI50 in the assay with OVCAR-4 is > 100 µM (inactive); in the assay with MDA-N, > 100 µM (inactive); in the assay with OVCAR-8, > 100 µM (inactive); with NCI-H226 it was 58.1 µM (inactive); with CAKI-1 it was > 100 µM (inactive); in the assay on KM12, > 100 µM (inactive). In addition, the GI50 in the assay with IGROV-1 was > 100 µM (inactive); in the assay with OVCAR-5, > 100 µM (inactive); in the assay with SK-MEL-28, > 100 µM (inactive); with M14, > 100 µM (inactive); in the assay on NCI-H522, 70.3 µM (inactive); with HT-29, > 100 µM (inactive). Besides, the GI50 with U-251 was > 100 µM (inactive); in the assay with NCI-H460 it was > 100 µM (inactive); in the assay on UO-31, > 100 µM (inactive); with SK-OV-3 it was 44.1 µM (inactive).

For the molecule `O=C1CCC(c2nc3cc(Cl)ccc3o2)C(=O)N1` (stereo unspecified), the GI50 in the assay on OVCAR-4, with HCC 2998, in the assay on SF-268, with LOX IMVI, in the assay with OVCAR-8 and with NCI-H226 was > 100 µM (inactive) each time. Also, the GI50 in the assay with CAKI-1, with KM12, in the assay on IGROV-1, in the assay on HCT-116, in the assay on OVCAR-5 and in the assay with SK-MEL-28 was > 100 µM (inactive) each time. Also, the GI50 with M14, in the assay with NCI-H522, with HT-29, in the assay on U-251, in the assay with NCI-H460 and in the assay with UO-31 was > 100 µM (inactive) throughout. In the assay with SK-OV-3, the GI50 is > 100 µM (inactive).

For `COc1cc(O)c2c(O)c3c(c4c2c1[C@]1(C4)C(C)=CCCC1(C)C)[C@H](O)[C@@]1(O)CC(O)=C(C(N)=O)C(=O)[C@@]1(O)C3=O`, the GI50 is 0.245 µM (active) with OVCAR-4; 0.333 µM (active) in the assay with MDA-N; 0.269 µM (active) with SF-268; 0.305 µM (active) in the assay with LOX IMVI; 0.113 µM (active) in the assay with OVCAR-8; 0.239 µM (active) in the assay on NCI-H226. For the same molecule, the GI50 in the assay on CAKI-1 was 0.294 µM (active); in the assay with KM12 it was 0.346 µM (active); in the assay on IGROV-1, 0.643 µM (active); with HCT-116, 0.209 µM (active); in the assay with OVCAR-5, 0.324 µM (active); with SK-MEL-28, 0.873 µM (active). Also, the GI50 is 0.126 µM (active) in the assay on M14; 0.071 µM (active) in the assay with NCI-H522; 0.0615 µM (active) with HT-29; 0.0453 µM (active) with U-251; 0.0435 µM (active) in the assay with NCI-H460; 0.34 µM (active) in the assay with UO-31. In the assay on SK-OV-3, the GI50 is 0.348 µM (active).

With `COC(=O)[C@@H]1CO[C@H](C(C)(C)C)N1C(=O)N1C=CC(=O)C[C@H]1C`, the GI50 in the assay on MDA-N, in the assay on SF-268, with LOX IMVI, in the assay with OVCAR-8, with NCI-H226 and in the assay on CAKI-1 was > 100 µM (inactive) in each case. Besides, the GI50 in the assay on KM12, in the assay on IGROV-1, in the assay with HCT-116, with OVCAR-5, in the assay on SK-MEL-28 and with M14 was > 100 µM (inactive) throughout. Also, the GI50 in the assay with NCI-H522, in the assay with HT-29, in the assay with U-251, in the assay on UO-31 and in the assay with SK-OV-3 was > 100 µM (inactive) in each case.

On to `O=S(=O)(CC(O)C(Cl)(Cl)Cl)NNc1ccccc1` (stereo unspecified), for which the GI50 with OVCAR-4, in the assay on MDA-N, in the assay with SF-268, in the assay with LOX IMVI, with OVCAR-8 and in the assay on NCI-H226 was > 100 µM (inactive) in each case. Further, the GI50 in the assay with CAKI-1, in the assay on KM12, in the assay on IGROV-1, in the assay on HCT-116, in the assay with OVCAR-5 and in the assay with SK-MEL-28 was > 100 µM (inactive) throughout. The GI50 with M14 is 81.7 µM (inactive); in the assay on NCI-H522, > 100 µM (inactive); with HT-29 it was > 100 µM (inactive); in the assay with U-251, > 100 µM (inactive); with NCI-H460 it was 75.3 µM (inactive); in the assay with SK-OV-3, > 100 µM (inactive).

In the case of `Cc1c([N+](=O)[O-])ccc2c(NCCCN(C)C)ccnc12`, the GI50 is 17.4 µM (inactive) in the assay with OVCAR-4; 15 µM (inactive) with MDA-N; 37 µM (inactive) with SF-268; 15.7 µM (inactive) in the assay with LOX IMVI; 25.2 µM (inactive) with OVCAR-8; 30.4 µM (inactive) with NCI-H226. The GI50 with CAKI-1 was 35.6 µM (inactive); in the assay with KM12, 16.7 µM (inactive); with IGROV-1, 22.2 µM (inactive); with HCT-116, 15.2 µM (inactive); in the assay with OVCAR-5, 29.6 µM (inactive); in the assay on SK-MEL-28 it was 25.5 µM (inactive). The GI50 was 16.3 µM (inactive) with M14; 17.3 µM (inactive) in the assay on NCI-H522; 14.2 µM (inactive) in the assay on HT-29; 27.4 µM (inactive) in the assay on U-251; 16.3 µM (inactive) in the assay with NCI-H460; 13.7 µM (inactive) with UO-31. Moreover, the GI50 in the assay on SK-OV-3 was 39.8 µM (inactive).

Take `C[C@]12CC[C@H](O)CC1=CC[C@@H]1[C@@H]2CC[C@]2(C)C(=N/N)/C(=N\O)C[C@@H]12`: the GI50 was 57.4 µM (inactive) in the assay on OVCAR-4; 11.9 µM (inactive) in the assay with MDA-N; 59.7 µM (inactive) in the assay with SF-268; 57 µM (inactive) in the assay with LOX IMVI; > 100 µM (inactive) in the assay on OVCAR-8; 74.3 µM (inactive) with NCI-H226. For the same molecule, the GI50 with CAKI-1 was > 100 µM (inactive); in the assay with KM12, 38.2 µM (inactive); in the assay with IGROV-1 it was 21 µM (inactive); in the assay on HCT-116, 43.4 µM (inactive); with OVCAR-5, > 100 µM (inactive); with M14, > 100 µM (inactive). For the same molecule, the GI50 in the assay on NCI-H522 was 31.7 µM (inactive); in the assay with HT-29, 36 µM (inactive); in the assay on U-251 it was 21.6 µM (inactive); with UO-31 it was > 100 µM (inactive); in the assay with SK-OV-3, 76 µM (inactive).

Consider `c1ccc([P+](c2ccccc2)(c2ccccc2)c2ccc([P+](c3ccccc3)(c3ccccc3)c3ccccc3)cc2)cc1`, for which the GI50 is 56.1 µM (inactive) with MDA-N; 57.4 µM (inactive) in the assay with SF-268; 34.3 µM (inactive) with LOX IMVI; 59.6 µM (inactive) in the assay on OVCAR-8; 65.5 µM (inactive) with NCI-H226; > 100 µM (inactive) with CAKI-1. The GI50 is 31 µM (inactive) in the assay with KM12; 59.7 µM (inactive) in the assay with IGROV-1; 32 µM (inactive) in the assay on HCT-116; 88.5 µM (inactive) in the assay with OVCAR-5; > 100 µM (inactive) in the assay on SK-MEL-28; 82 µM (inactive) in the assay on M14. The GI50 in the assay with NCI-H522 was 37.1 µM (inactive); in the assay on HT-29 it was 45.8 µM (inactive); in the assay on U-251, 34.2 µM (inactive); in the assay on NCI-H460 it was 43.5 µM (inactive); in the assay on UO-31, > 100 µM (inactive); in the assay with SK-OV-3, > 100 µM (inactive).

Take `CS(=O)(=O)c1ccc2nc(-c3ccc(O)cc3)sc2c1`: the GI50 with MDA-N is 17.7 µM (inactive); in the assay on SF-268 it was 15.5 µM (inactive); in the assay with LOX IMVI, 22.1 µM (inactive); in the assay with OVCAR-8, 20.5 µM (inactive); with NCI-H226, 18.5 µM (inactive); in the assay with CAKI-1, 17.6 µM (inactive). Moreover, the GI50 was 16 µM (inactive) with KM12; 19.2 µM (inactive) with IGROV-1; 16.8 µM (inactive) in the assay with HCT-116; 17.7 µM (inactive) in the assay on OVCAR-5; 21.6 µM (inactive) in the assay with M14; 13.9 µM (inactive) with NCI-H522. Moreover, the GI50 with HT-29 is 13.2 µM (inactive); with U-251, 19 µM (inactive); in the assay with NCI-H460, 19.4 µM (inactive); in the assay on UO-31, 14.8 µM (inactive); in the assay on SK-OV-3, 17.5 µM (inactive).
